Consider 14 compounds from patent publication US11111259B2, “Acylsulfonamide derivatives for treating senescence-associated diseases and disorders” (Unity Biotechnology, Inc., priority 2015, dated 2021).

The target in one test is BCL-2 (Homo sapiens, UniProt P10415). The test can be described thus: BCL-binding assay (AlphaLISA competition, BIM peptide). To be noted: 6xHis BCL-2 with biotinylated BIM peptide, 24 hr incubation. The protocol:
(§1) Compounds were prepared as 400× DMSO stock solutions in a 1:4 dilution series then diluted […] in assay buffer (25 mM HEPES pH 7.5, 100 mM NaCl, 0.1% BSA, 0.005% Tween) immediately before use. Aliquots of 400 nM 6xHis-tagged BCL-xL, BCL-2, and BCL-w were thawed on ice and diluted to 0.4 (BCL-XL) or 0.8 (BCL-W and 2) nM in assay buffer. Aliquots of biotinylated BIM and BAD peptides were diluted in assay buffer to 120 and 60 nM respectively. Ten microliters of biotinylated peptide were added to wells of a 96-well PCR plate, followed by ten microliters of inhibitor, then ten microliters of BCL protein, BCL-XL with BAD and BCL-W/2 with BIM. The plates were sealed and incubated at room temperature. After 24 hr, 0.16 μg Anti-His conjugated AlphaLISA acceptor beads were added in 5 μL assay buffer. After one hour at room temperature, 0.16 μg AlphaScreen streptavidin donor beads were added in 5 μL assay buffer and plates were incubated an additional 30 min in the dark. Two 17 μL aliquots of each reaction were plated in a Perkin Elmer 384-well proxiplate, and plates were scanned for using a Perkin Elmer Enspire plate reader. Kd values were calculated in Prism Graph Pad using a one site competitive binding model and previously determined Kd values for each protein peptide pair. […]
On the technique in general: Alpha assays give light when donor and acceptor beads are brought close together.

The target of the next test is T1, BCL-w (Homo sapiens, UniProt Q92843).
T1 sequence (Q92843 1-193): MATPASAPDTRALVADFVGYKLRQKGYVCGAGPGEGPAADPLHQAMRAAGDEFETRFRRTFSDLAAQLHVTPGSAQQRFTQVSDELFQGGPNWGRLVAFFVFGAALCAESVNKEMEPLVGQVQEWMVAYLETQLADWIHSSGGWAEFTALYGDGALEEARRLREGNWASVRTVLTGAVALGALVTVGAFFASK
The description is as above. To be noted: 6xHis BCL-w with biotinylated BIM peptide, 24 hr incubation. The protocol:
as §1

Test [1] relates to IMR-90 SnC (irradiated senescent IMR90 cells). The test can be described thus: Senolysis assay (CellTiter-Glo viability). The conditions noted are these: for EC50: Homo sapiens, IMR-90, light or radiation study, 72 h, X-ray irradiated senescent IMR90 cells, viability three days after compound addition; for SI (ratio of EC50 of non-senescent cells to EC50 of senescent cells): IMR90 non-senescent vs senescent cells. Format: cell-based, human. How it is done:
IMR90 cells are maintained in DMEM supplemented with 10% FBS. To prepare a senescent population, cells were trypsinized, diluted to 50,000 per mL, and irradiated with 10-15 Gy of X-ray irradiation. Irradiated cells were plated at 5000 cells per well in one third of a 96-well plate and maintained for two weeks prior to the assay. Four days prior to the assay, non-senescent IMR90s were plated at 2500 per well in the second third of the plate. One day prior to the assay, 2500 non-senescent cells were plated in the final third of the plate. Compounds were prepared as a 200×DMSO dilution series then diluted to 1× in media immediately before adding to cells. Three days after compound addition, cell viability was measured using CellTiter-Glo reagent from Promega. Viability was calculated relative to a DMSO control and EC50 values are calculated in Prism GraphPad. […] The selectivity (SI) of the compounds described herein is a ratio of the EC50 of non-senescent cells to the EC50 of senescent cells. The SI of the compounds described herein is 10 or above for “A” selectivity, between 2 and 10 for “B” selectivity or 2 or less for “C” selectivity.
(In general: ATP-based viability assays read luminescence as a measure of living cells.)

For another test, the target named is BCL-xL (Homo sapiens, UniProt Q07817). The test can be described thus: BCL-binding assay (AlphaLISA competition, BAD peptide). To be noted: 6xHis BCL-xL with biotinylated BAD peptide, 24 hr incubation. The protocol:
as §1

BCL-2, sequence (P10415 whole entry, species assumed): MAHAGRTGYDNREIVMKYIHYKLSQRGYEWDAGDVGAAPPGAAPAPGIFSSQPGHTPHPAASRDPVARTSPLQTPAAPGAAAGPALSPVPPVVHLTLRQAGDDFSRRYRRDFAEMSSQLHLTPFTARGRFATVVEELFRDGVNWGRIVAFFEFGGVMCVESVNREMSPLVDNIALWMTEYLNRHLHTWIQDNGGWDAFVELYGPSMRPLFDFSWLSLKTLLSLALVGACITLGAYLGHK
BCL-xL, sequence (Q07817 whole entry, species assumed): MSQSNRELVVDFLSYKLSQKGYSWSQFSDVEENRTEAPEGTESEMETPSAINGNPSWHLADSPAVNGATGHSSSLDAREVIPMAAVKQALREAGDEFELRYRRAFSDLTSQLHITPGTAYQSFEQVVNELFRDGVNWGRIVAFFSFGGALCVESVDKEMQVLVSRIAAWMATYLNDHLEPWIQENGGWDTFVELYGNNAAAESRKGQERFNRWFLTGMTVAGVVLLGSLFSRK

Take `CCOP(=O)(CN1CCN(CC[C@H](CSc2ccccc2)Nc2ccc(S(=O)(=O)NC(=O)c3ccc(N4CCN(CC5=C(c6ccc(Cl)cc6)CCC(C)(C)C5)CC4)cc3)cc2S(=O)(=O)C(F)(F)F)CC1)OCOC(=O)C(C)(C)C` (stereo partly drawn) [Compound 28, (((4-((R)-3-((4-(N-(4-(4-((4′-Chloro-4,4-dimethyl-3,4,5,6-tetrahydro-[1,1′-biphenyl]-2-yl)methyl)piperazin-1-yl)benzoyl)sulfamoyl)-2-((trifluoromethyl)sulfonyl)phenyl)amino)-4-(phenylthio)butyl)piperazin-1-yl)methyl)(ethoxy)phosphoryl)oxy)methyl pivalate]: the Kd (in general, the concentration at which binding is half-saturated) is less than 1 nM at BCL-2, 10 to 50 nM at BCL-w and 1 to 10 nM on BCL-xL. Further, in test [1], the half-maximal effective concentration (EC50) (usually the concentration that produces a half-maximal response) is less than 1000 nM. Besides, the “SI (ratio of EC50 of non-senescent cells to EC50 of senescent cells)” value in test [1] was “B (between 2 and 10)”.
`CCOP(=O)(CN1CCN(CC[C@H](CSc2ccccc2)N(c2ccc(S(=O)(=O)NC(=O)c3ccc(N4CCN(CC5=C(c6ccc(Cl)cc6)CCC(C)(C)C5)CC4)cc3)cc2S(=O)(=O)C(F)(F)F)S(C)(=O)=O)CC1)OCC` [Compound 29]: the equilibrium dissociation constant (Kd) was 10 to 50 nM at BCL-2, greater than 50 nM on BCL-w and 10 to 50 nM at BCL-xL. This compound returned an EC50 in test [1] of 1000 to 10000 nM. Besides, in test [1], the “SI (ratio of EC50 of non-senescent cells to EC50 of senescent cells)” value is “C (2 or less)”.
With `CCOP(=O)(O)CN1CCN(CC[C@H](CSc2ccccc2)N(c2ccc(S(=O)(=O)NC(=O)c3ccc(N4CCN(CC5=C(c6ccc(Cl)cc6)CCC(C)(C)C5)CC4)cc3)cc2S(=O)(=O)C(F)(F)F)S(C)(=O)=O)CC1` [Compound 30], the Kd was 1 to 10 nM at BCL-2, greater than 50 nM at BCL-w and 1 to 10 nM on BCL-xL. The compound further gave an EC50 in test [1] of 1000 to 10000 nM.
For `CCOP(=O)(O)CCCN1CCN(CC[C@H](CSc2ccccc2)Nc2ccc(S(=O)(=O)NC(=O)c3ccc(N4CCN(CC5=C(c6ccc(Cl)cc6)CCC(C)(C)C5)CC4)cc3)cc2S(=O)(=O)C(F)(F)F)CC1` [Compound 31], the Kd at BCL-2 is less than 1 nM; on BCL-w, 1 to 10 nM; at BCL-xL, less than 1 nM. Further, the EC50 in test [1] is greater than 10000 nM.
For `CC1(C)CCC(c2ccc(Cl)cc2)=C(CN2CCN(c3ccc(C(=O)NS(=O)(=O)c4ccc(N[C@H](CCN5CCN(CCCP(=O)(O)O)CC5)CSc5ccccc5)c(S(=O)(=O)C(F)(F)F)c4)cc3)CC2)C1` [Compound 32], the equilibrium dissociation constant (Kd) is less than 1 nM on BCL-2, 10 to 50 nM at BCL-w and less than 1 nM at BCL-xL. The same compound registered an EC50 in test [1] greater than 10000 nM.
For `CCOP(=O)(CCCN1CCN(CC[C@H](CSc2ccccc2)Nc2ccc(S(=O)(=O)NC(=O)c3ccc(N4CCN(CC5=C(c6ccc(Cl)cc6)CCC(C)(C)C5)CC4)cc3)cc2S(=O)(=O)C(F)(F)F)CC1)OCOC(=O)C(C)(C)C` (stereo partly shown) [Compound 33], the dissociation constant (Kd) is less than 1 nM on BCL-2, 1 to 10 nM at BCL-w and less than 1 nM on BCL-xL. The compound further yielded a 50% effective concentration (EC50) in test [1] greater than 10000 nM. In addition, the “SI (ratio of EC50 of non-senescent cells to EC50 of senescent cells)” value in test [1] is “B (between 2 and 10)”.
Regarding `CCOP(=O)(CN1CCN(CC(CSc2ccccc2)Nc2ccc(S(=O)(=O)NC(=O)c3ccc(N4CCN(CC5=C(c6ccc(Cl)cc6)CCC(C)(C)C5)CC4)cc3)cc2S(=O)(=O)C(F)(F)F)CC1)OCC` (stereo not shown) [Compound 34], the figures for the dissociation constant Kd on BCL-2, on BCL-w and on BCL-xL were less than 1 nM, greater than 50 nM and 1 to 10 nM, respectively. The EC50 in test [1] is greater than 10000 nM. Besides, in test [1], the “SI (ratio of EC50 of non-senescent cells to EC50 of senescent cells)” value was “C (2 or less)”.
In the same order, the values of `CCOP(=O)(CCN1CCN(CC(CSc2ccccc2)Nc2ccc(S(=O)(=O)NC(=O)c3ccc(N4CCN(CC5=C(c6ccc(Cl)cc6)CCC(C)(C)C5)CC4)cc3)cc2S(=O)(=O)C(F)(F)F)CC1)OCC` (stereo not shown) [Compound 35, Diethyl (2-(4-(2-((4-(N-(4-(4-((4′-chloro-4,4-dimethyl-3,4,5,6-tetrahydro-[1,1′-biphenyl]-2-yl)methyl)piperazin-1-yl)benzoyl)sulfamoyl)-2-((trifluoromethyl)sulfonyl)phenyl)amino)-3-(phenylthio)propyl)piperazin-1-yl)ethyl)phosphonate] are less than 1 nM, greater than 50 nM, 1 to 10 nM, 1000 to 10000 nM and “C (2 or less)”.
`CCOP(=O)(CCCN1CCN(CC[C@H](CSc2ccccc2)Nc2ccc(S(=O)(=O)NC(=O)c3ccc(N4CCN(CC5=C(c6ccc(Cl)cc6)CCC(C)(C)C5)CC4)cc3)cc2S(=O)(=O)C(F)(F)F)CC1)OCOC(=O)OC(C)C` (stereo partly shown) [Compound 36]: the dissociation constant Kd was less than 1 nM at BCL-2, 10 to 50 nM on BCL-w and less than 1 nM on BCL-xL. In test [1], the EC50 lay in the range of 1000 to 10000 nM. Also, in test [1], the “SI (ratio of EC50 of non-senescent cells to EC50 of senescent cells)” value is “B (between 2 and 10)”.
On to `CCOP(=O)(CCCN1CCN(CC[C@H](CSc2ccccc2)Nc2ccc(S(=O)(=O)NC(=O)c3ccc(N4CCN(CC5=C(c6ccc(Cl)cc6)CCC(C)(C)C5)CC4)cc3)cc2S(=O)(=O)C(F)(F)F)CC1)OCOC(C)=O` (stereo partly shown) [Compound 37], for which the Kd on BCL-2 was less than 1 nM; on BCL-w, 1 to 10 nM; on BCL-xL, less than 1 nM. Further, in test [1], the EC50 was 1000 to 10000 nM. Moreover, the “SI (ratio of EC50 of non-senescent cells to EC50 of senescent cells)” value in test [1] was “B (between 2 and 10)”.
For `CCOP(=O)(CCN1CCN(CC[C@H](CSc2ccccc2)Nc2ccc(S(=O)(=O)NC(=O)c3ccc(N4CCN(CC5=C(c6ccc(Cl)cc6)CCC(C)(C)C5)CC4)cc3)cc2S(=O)(=O)C(F)(F)F)CC1)OCOC(=O)C(C)(C)C` (stereo partly shown) [Compound 38], the dissociation constant Kd on BCL-2 was less than 1 nM; on BCL-w, 10 to 50 nM; at BCL-xL, less than 1 nM. The 50% effective concentration (EC50) in test [1] lay in the range of 1000 to 10000 nM. For the same compound, the “SI (ratio of EC50 of non-senescent cells to EC50 of senescent cells)” value in test [1] is “A (10 or above)”.
As for `CCOP(=O)(CN1CCN(CC[C@H](CSc2ccccc2)Nc2ccc(S(=O)(=O)NC(=O)c3ccc(N4CCN(CC5=C(c6ccc(Cl)cc6)CCC(C)(C)C5)CC4)cc3)cc2S(=O)(=O)C(F)(F)F)CC1)OCOC(=O)OC(C)C` (stereo partly drawn) [Compound 39, [[4-[(3R)-3-[4-[[4-[4-[[2-(4-Chlorophenyl)-5,5-dimethyl-cyclohexen-1-yl]methyl]piperazin-1-yl]benzoyl]sulfamoyl]-2-(trifluoromethylsulfonyl)anilino]-4-phenylsulfanyl-butyl]piperazin-1-yl]methyl-ethoxy-phosphoryl]oxymethyl isopropyl carbonate], the values for the Kd at BCL-2, on BCL-w and at BCL-xL were less than 1 nM, 10 to 50 nM and less than 1 nM, respectively. In addition, the half-maximal effective concentration (EC50) in test [1] was less than 1000 nM. In addition, the “SI (ratio of EC50 of non-senescent cells to EC50 of senescent cells)” value in test [1] is recorded as “A (10 or above)”.
In the case of `CC1(C)CCC(c2ccc(Cl)cc2)=C(CN2CCN(c3ccc(C(=O)NS(=O)(=O)c4ccc(N[C@H](CCN5CCN(CCCP(=O)(OCOC(=O)C(C)(C)C)OCOC(=O)C(C)(C)C)CC5)CSc5ccccc5)c(S(=O)(=O)C(F)(F)F)c4)cc3)CC2)C1` [Compound 40], the Kd on BCL-2 was less than 1 nM; at BCL-w, 10 to 50 nM; at BCL-xL, less than 1 nM. The compound also yielded an EC50 in test [1] greater than 10000 nM. The “SI (ratio of EC50 of non-senescent cells to EC50 of senescent cells)” value in test [1] is “B (between 2 and 10)”.
In the case of `CCOP(=O)(C=C1CCN(CC[C@H](CSc2ccccc2)Nc2ccc(S(=O)(=O)NC(=O)c3ccc(N4CCN(CC5=C(c6ccc(Cl)cc6)CCC(C)(C)C5)CC4)cc3)cc2S(=O)(=O)C(F)(F)F)CC1)OCC` [Compound 41, Diethyl (R)-((1-(3-((4-(N-(4-(4-((4′-chloro-4,4-dimethyl-3,4,5,6-tetrahydro-[1,1′-biphenyl]-2-yl)methyl)piperazin-1-yl)benzoyl)sulfamoyl)-2-((trifluoromethyl)sulfonyl)phenyl)amino)-4-(phenylthio)butyl)piperidin-4-ylidene)methyl)phosphonate], the values for the dissociation constant Kd on BCL-2, at BCL-w and at BCL-xL were less than 1 nM, 1 to 10 nM and less than 1 nM, respectively. This compound had an EC50 in test [1] of less than 1000 nM. Moreover, the “SI (ratio of EC50 of non-senescent cells to EC50 of senescent cells)” value in test [1] is given as “A (10 or above)”.
